# Measured values reported in patent US12012392B2, “Sulfonamide carboxamide compounds” (Inflazome Limited, priority 2017, dated 2024).
# How the values were obtained:
# NLRP3 [1] = molecular target: T1, NLRP3 (Homo sapiens, UniProt Q96P20); experiment: THP-1 cells pyroptosis assay; type: cell-based; set-up: Seed THP-1 cells (25,000 cells/well) containing 1.0 μg/ml LPS; host or cells: THP-1 cells, LPS-primed, nigericin-stimulated; conditions: LPS 1 μg/ml, nigericin 5 μM, resazurin read-out
# Summary of the method: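 THP-1 cells (25,000/well) primed with 1 μg/ml LPS in serum-free RPMI, given compound (8-point half-log, 10 μM top, 0.1% DMSO) for 3 hrs, then nigericin 5 μM for 1 hr at 37° C. Viability of remaining cells read by resazurin (100 μM, 1–2 hrs) fluorescence; IC50 from 4-parameter fit.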
# [2] = PK protocol (intravenous and oral administration); type: in vivo, male Sprague Dawley rats; conditions: male, Sprague Dawley, plasma, rat, intravenous, dose 1 mg/kg
# Description: Pharmacokinetic parameters were determined in male Sprague Dawley rats (Charles River, UK, 250-350 g; or Vital River Laboratory Animal Technology Co Ltd, Beijing, China, 7-9 weeks old). Animals were individually housed during the study and maintained under a 12 h light/dark cycle. Animals had free access to food and water except that some orally dosed animals were food deprived overnight prior to the study. For intravenous administration, compounds were formulated as a solution in water or DMSO:PBS [10:90] in 2 mL/kg dosing volume and administered via tail vein. For oral administration, compounds were formulated as a solution in water or DMSO:water [10:90] in 5 mL/kg dosing volume and administered orally.
# Serial blood samples (about 120-300 μL) were taken from each animal at each of 8 time-points post dose (0.083, 0.25, 0.5, 1, 2, 4, 8 and 24 h) or at each of 12 time-points post dose (0.03, 0.1, 0.17, 0.25, 0.5, 1, 2, 4, 6, 8, 12 and 24 h) or pre-dose and at each of 9 time-points post dose (0.25, 0.5, 1, 2, 4, 6, 8, 12 and 24 h). Samples were held on ice for no longer than 30 minutes before centrifugation (10,000 rpm (8,385 g) for 3 minutes; or 5,696 rpm (3,000 g) for 15 minutes) for plasma generation. Plasma was frozen on dry ice prior to bioanalysis. PK parameters were generated from LC-MS/MS data using Dotmatics or Phoenix WinNonlin 6.3 software.
# NLRP3 [3] = molecular target: T1, NLRP3; experiment: Human whole blood IL1β release assay; type: cell-based; set-up: Plate out 80 μl of whole blood containing 1 μg/ml of LPS; from tissue; host or cells: human whole blood from healthy donors, LPS-primed, nigericin-stimulated; conditions: LPS 1 μg/ml, nigericin 10 μM, IL-1β AlphaLisa, read-out: HWB IC50
# Description: For systemic delivery, the ability to inhibit NLRP3 when the compounds are present within the bloodstream is of great importance. For this reason, the NLRP3 inhibitory activity of a number of compounds in human whole blood was investigated in accordance with the following protocol.
# Human whole blood in Li-heparin tubes was obtained from healthy donors from a volunteer donor panel. • 1. Plate out 80 μl of whole blood containing 1 μg/ml of LPS in 96-well, clear bottom cell culture plate (Corning #3585) • 2. Add […] compound (8 points half-log dilution with 10 μM top dose) or vehicle (DMSO 0.1% FAC) to the appropriate wells • 3. Incubate for 3 hrs at 37° C., 5% CO2 • 4. Add 10 μl Nigericin (Sigma #N7143) (10 μM FAC) to all wells • 5. Incubate for 1 hr at 37° C., 5 CO2 • 6. At the end of the incubation period, spin plates at 300×g for 5 mins to pellet cells and remove 20 μl of supernatant and add to 96-well v-bottom plates for […] analysis (note: these plates containing the supernatants can be stored at −80° C. to be analysed at a later date) • 7. IL-1β was measured according to the manufacturer protocol (Perkin Elmer-AlphaLisa IL-1 Kit AL220F-5000) • 8. IC50 data is fitted to anon-linear regression equation (log inhibitor vs response-variable slope 4-parameters)
# T1 sequence (Q96P20 whole entry): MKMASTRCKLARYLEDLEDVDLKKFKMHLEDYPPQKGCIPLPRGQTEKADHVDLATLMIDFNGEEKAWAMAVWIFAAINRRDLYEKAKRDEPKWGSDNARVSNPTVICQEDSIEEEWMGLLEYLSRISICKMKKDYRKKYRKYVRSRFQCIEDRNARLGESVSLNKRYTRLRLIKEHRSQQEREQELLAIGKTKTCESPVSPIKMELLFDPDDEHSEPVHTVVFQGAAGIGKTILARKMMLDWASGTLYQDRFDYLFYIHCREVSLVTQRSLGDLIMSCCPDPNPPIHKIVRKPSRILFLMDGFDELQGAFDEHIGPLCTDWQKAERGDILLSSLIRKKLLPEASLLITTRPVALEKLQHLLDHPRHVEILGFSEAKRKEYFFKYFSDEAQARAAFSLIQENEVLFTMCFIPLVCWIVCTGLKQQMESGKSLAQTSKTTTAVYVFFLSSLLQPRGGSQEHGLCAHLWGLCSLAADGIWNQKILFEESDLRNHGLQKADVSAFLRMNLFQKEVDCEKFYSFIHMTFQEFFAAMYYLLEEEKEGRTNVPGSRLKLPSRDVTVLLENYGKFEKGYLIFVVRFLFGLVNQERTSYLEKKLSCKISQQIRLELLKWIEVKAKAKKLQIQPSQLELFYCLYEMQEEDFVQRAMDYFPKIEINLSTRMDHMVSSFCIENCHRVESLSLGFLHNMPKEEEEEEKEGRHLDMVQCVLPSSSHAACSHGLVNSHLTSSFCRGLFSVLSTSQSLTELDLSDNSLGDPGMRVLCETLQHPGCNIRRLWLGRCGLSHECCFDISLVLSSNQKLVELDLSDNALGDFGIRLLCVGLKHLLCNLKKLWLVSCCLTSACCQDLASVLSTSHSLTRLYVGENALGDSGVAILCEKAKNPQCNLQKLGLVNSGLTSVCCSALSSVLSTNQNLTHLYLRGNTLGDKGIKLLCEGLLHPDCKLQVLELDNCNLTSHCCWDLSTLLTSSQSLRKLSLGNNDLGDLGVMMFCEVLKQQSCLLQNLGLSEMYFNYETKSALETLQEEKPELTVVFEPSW
smiles,measurement,setting,value
"COC1(c2cc(S(=O)(=O)NC(=O)Nc3c4c(cc5c3CCC5)CCC4)nn2C(C)C)COC1 [Example 42, N-((1,2,3,5,6,7-Hexahydro-s-indacen-4-yl)carbamoyl)-1-isopropyl-5-(3-methoxyoxetan-3-yl)-1H-pyrazole-3-sulfonamide]",IC50,NLRP3 [1],< 40 nM
same,AUC,[2],2960 ng·h/mL
same,clearance,[2],5.6 mL/min/kg
same,half-life,[2],42 min
same,Vd,[2]; read-out: Vdss,0.24 L/kg
same,IC50,NLRP3 [3],< 400 nM
C[C@@H](O)Cn1ccc(S(=O)(=O)NC(=O)Nc2c(-c3ccnc(C#N)c3)ccc3c2CCC3)n1 [Example 92],IC50,NLRP3 [1],< 40 nM
same,IC50,NLRP3 [3],< 400 nM
CC(C)(O)Cn1ccc(S(=O)(=O)NC(=O)Nc2c(-c3ccnc(C#N)c3)ccc3c2CCC3)n1 [Example 93],IC50,NLRP3 [1],< 40 nM
same,IC50,NLRP3 [3],< 400 nM
COc1cc(-c2ccc3c(c2NC(=O)NS(=O)(=O)c2ccn(C[C@@H](C)O)n2)CCC3)ccn1 [Example 94],IC50,NLRP3 [1],< 40 nM
same,IC50,NLRP3 [3],< 400 nM
COc1cc(-c2ccc3c(c2NC(=O)NS(=O)(=O)c2ccn(CC(C)(C)OC)n2)CCC3)ccn1 [Example 95],IC50,NLRP3 [1],< 40 nM
same,IC50,NLRP3 [3],< 400 nM
COc1cc(-c2ccc3c(c2NC(=O)NS(=O)(=O)c2ccn(CC(C)(C)O)n2)CCC3)ccn1 [Example 96],IC50,NLRP3 [1],< 40 nM
same,IC50,NLRP3 [3],< 400 nM
COc1cc(-c2ccc3c(c2NC(=O)NS(=O)(=O)c2ccn(C4CCOC4)n2)CCC3)ccn1 (stereo not shown) [Example 97],IC50,NLRP3 [1],40 to 160 nM
same,IC50,NLRP3 [3],< 400 nM
COc1cc(-c2ccc3c(c2NC(=O)NS(=O)(=O)c2cc(C4(OC)COC4)n(C)n2)CCC3)ccn1 [Example 98],IC50,NLRP3 [1],< 40 nM
same,IC50,NLRP3 [3],< 400 nM
C[C@@H](O)Cn1cc(S(=O)(=O)NC(=O)Nc2c3c(cc4c2CCC4)CCC3)nn1 [Example 103],IC50,NLRP3 [1],160 to 640 nM
same,IC50,NLRP3 [3],800 to 1600 nM
O=C(Nc1c2c(cc3c1CCC3)CCC2)NS(=O)(=O)c1ccn(C[C@@H](O)CO)n1 [Example 104],IC50,NLRP3 [1],160 to 640 nM
same,IC50,NLRP3 [3],800 to 1600 nM
CC(C)(O)Cn1ccc(S(=O)(=O)NC(=O)Nc2c3c(c(F)c4c2CCC4)CCC3)n1 [Example 106],IC50,NLRP3 [1],< 40 nM
same,IC50,NLRP3 [3],400 to 800 nM
COC1CN(CC(C)(C)n2ccc(S(=O)(=O)NC(=O)Nc3c4c(cc5c3CCC5)CCC4)n2)C1 [Example 107],IC50,NLRP3 [1],40 to 160 nM
same,IC50,NLRP3 [3],800 to 1600 nM
